Read-outs that look alike come from different tables or passages of the source. Where only a bound is given, the exact number is not on record here.

By melting point is commonly meant the temperature, or range, at which the solid turns liquid.

Data set [1] has as its system SMN2 minigene (full length SMN2 minigene mRNA containing SMN2 exon 7). The data set is described as follows: SMN2 minigene mRNA splicing RT-qPCR assay in cultured cells. The data set is classed as cell-based, human. The note with it: Homo sapiens, HEK293-H, read-out: EC1.5x for production of full length SMN2 mRNA. Summed up: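 HEK293H cells stably carrying the SMN2-A minigene treated 24 h at 37° C with compound (DMSO, 200× stock), then lysed. Multiplex RT-qPCR (SMN primers 0.4 μM final; 40 cycles) measures full-length exon 7-containing minigene mRNA, normalized to GAPDH and to vehicle; EC1.5x derived and binned by stars.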
(In general: In qPCR the cycle at which signal appears reflects the starting amount.)

A further data set concerns Smn protein. In words: Smn protein assay in cultured cells (SMN HTRF). The note with it: 48 hours; for maximum fold (Fold) increase of Smn protein: SMA patient fibroblast cells, 7-point concentration data, fold increase relative to vehicle control (SMN HTRF); for EC1.5x (concentration giving 1.5-fold Smn protein increase): SMA Type 1 patient fibroblast cells (GM03813), 7-point concentration curve, SMN HTRF, concentration producing 1.5 times Smn protein vs DMSO vehicle control, read-out: EC1.5x for Smn protein expression. The data set is classed as cell-based, human. Summed up:
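Lysates in RIPA with protease inhibitors are incubated overnight at room temperature with HTRF anti-SMN antibodies. EC1.5x is derived from fold increase in ΔF over vehicle.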

[2] abbreviates: HEK293H cells stably transfected with SMN2-A minigene, 24 hours, 7-point concentration curve, 1.5-fold relative to vehicle-treated cells.

For `Cc1cccn2cc(-c3cc4ccc(N5C[C@@H](C)N[C@@H](C)C5)cc4oc3=O)nc12` [Compound 136, 7-[(3R,5S)-3,5-dimethylpiperazin-1-yl]-3-(8-methylimidazo[1,2-a]pyridin-2-yl)-2H-chromen-2-one], the melting point is 243 to 246 °C. Besides, in data set [1] (setting [2]), the EC (1.5-fold) lay in the range of 1 to 3 µM. In addition, in the data set with Smn protein, the “maximum fold (Fold) increase of Smn protein” value (“maximum fold (Fold) increase” for short) was “** (fold increase between >1.2 and ≤1.35)”.
The compound `Cc1cccc2nc(-c3cc4ccc(N5CCN(C)CC5)cc4oc3=O)cn12` [Compound 135, 3-(5-methylimidazo[1,2-a]pyridin-2-yl)-7-(4-methylpiperazin-1-yl)-2H-chromen-2-one] had a melting point of 263 to 272 °C. Further, in data set [1] (setting [2]), the EC (1.5-fold) fell in the range of 0.3 to 1 µM. For the same compound, in the data set with Smn protein, the “maximum fold (Fold) increase” value was “** (fold increase between >1.2 and ≤1.35)”.
`Cl.O=c1oc2cc(N3CCCNCC3)ccc2cc1-c1cn2cccnc2n1` [Compound 186, 7-(1,4-diazepan-1-yl)-3-(imidazo[1,2-a]pyrimidin-2-yl)-2H-chromen-2-one hydrochloride] returned a melting point of over 300 °C. The EC (1.5-fold) in data set [1] (setting [2]) fell in the range of 0.1 to 0.3 µM. For the same compound, in the data set with Smn protein, the EC1.5x (concentration giving 1.5-fold Smn protein increase) fell in the range of 1000 to 3000 nM; the “maximum fold (Fold) increase” value was “*** (fold increase between >1.35 and ≤1.5)”.
For the compound `CN(C)CCN(C)c1ccc2cc(-c3cn4cccnc4n3)c(=O)oc2c1` [Compound 130, 7-{[2-(dimethylamino)ethyl](methyl)amino}-3-(imidazo[1,2-a]pyrimidin-2-yl)-2H-chromen-2-one], the melting point fell in the range of 175 to 180 °C. Besides, the EC (1.5-fold) in data set [1] (setting [2]) is 1 to 3 µM. In addition, in the data set with Smn protein, the “maximum fold (Fold) increase” value is listed as “* (maximum fold increase of ≤1.2)”.
`Cc1ccn2cc(-c3cc4ccc(N5CCN6CCC5CC6)cc4oc3=O)nc2c1` [Compound 521, 7-(1,4-diazabicyclo[3.2.2]non-4-yl)-3-(7-methylimidazo[1,2-a]pyridin-2-yl)-2H-chromen-2-one] yielded a melting point of 216 to 223 °C. In addition, the EC (1.5-fold) in data set [1] (24 h) was in the range of 0.3 to 1 µM. Further, the “maximum fold (Fold) increase” value in the data set with Smn protein is “** (fold increase between >1.2 and ≤1.35)”.
`CN1CCCN(c2cc(F)c3cc(-c4cc(F)cc(F)c4)c(=O)oc3c2)CC1` [Compound 365, 3-(3,5-difluorophenyl)-5-fluoro-7-(4-methyl-1,4-diazepan-1-yl)-2H-chromen-2-one] gave a melting point of 161 to 164 °C. For the same compound, in data set [1] (setting [2]), the EC (1.5-fold) was 1 to 3 µM. For the same compound, the “maximum fold (Fold) increase” value in the data set with Smn protein is recorded as “* (maximum fold increase of ≤1.2)”.
Take `CN1CCCN(c2ccc3cc(-c4nc5ccccc5s4)c(=O)oc3c2)CC1` [Cpd 145, 3-(1,3-benzothiazol-2-yl)-7-(4-methyl-1,4-diazepan-1-yl)-2H-chromen-2-one]: the melting point was in the range of 217 to 220 °C. Further, the EC (1.5-fold) in data set [1] (setting [2]) was 0.1 to 0.3 µM. For the same compound, in the data set with Smn protein, the “maximum fold (Fold) increase” value was “** (fold increase between >1.2 and ≤1.35)”.
`Cc1ccc2nc(-c3cc4ccc(CN5CCC(O)CC5)cc4oc3=O)cn2c1` [Compound 252, 7-[(4-hydroxypiperidin-1-yl)methyl]-3-(6-methylimidazo[1,2-a]pyridin-2-yl)-2H-chromen-2-one] displayed a melting point of 261 to 264 °C. For the same compound, the EC (1.5-fold) in data set [1] (setting [2]) is 3 to 30 µM. Also, the “maximum fold (Fold) increase” value in the data set with Smn protein was “** (fold increase between >1.2 and ≤1.35)”.
For the compound `C[C@H]1CN(c2ccc3cc(-c4nc(C(F)(F)F)cs4)c(=O)oc3c2)CCN1` [Compound 239, 7-[(3S)-3-methylpiperazin-1-yl]-3-[4-(trifluoromethyl)-1,3-thiazol-2-yl]-2H-chromen-2-one], the melting point lay in the range of 234 to 238 °C. For the same compound, the EC (1.5-fold) in data set [1] (setting [2]) was in the range of 1 to 3 µM. The “maximum fold (Fold) increase” value in the data set on Smn protein is listed as “* (maximum fold increase of ≤1.2)”.
Compound `Cc1nccn2cc(-c3cc4ccc(N5CCN6CCC[C@H]6C5)cc4oc3=O)cc12` [Compound 642, 7-[(8aS)-hexahydropyrrolo[1,2-a]pyrazin-2(1H)-yl]-3-(1-methylpyrrolo[1,2-a]pyrazin-7-yl)-2H-chromen-2-one] displayed a melting point of 175 to 178 °C. Further, the EC (1.5-fold) in data set [1] (setting [2]) is under 0.1 µM. Moreover, the “maximum fold (Fold) increase” value with Smn protein is “** (fold increase between >1.2 and ≤1.35)”.
On to `Cc1cccn2cc(-c3cc4ccc(N5CCCN(C)CC5)cc4oc3=O)nc12` [Compound 246, 7-(4-methyl-1,4-diazepan-1-yl)-3-(8-methylimidazo[1,2-a]pyridin-2-yl)-2H-chromen-2-one], for which the melting point is 138 to 140 °C. Also, the EC (1.5-fold) in data set [1] (setting [2]) lay within 0.1 to 0.3 µM. In addition, in the data set with Smn protein, the EC1.5x (concentration giving 1.5-fold Smn protein increase) lay within 1000 to 3000 nM; the “maximum fold (Fold) increase” value was “*** (fold increase between >1.35 and ≤1.5)”.
On to `Cc1cc2cc(-c3cc4ccc(N5CCN(C)[C@@H](C)C5)cc4oc3=O)oc2c(C)n1` [Compound 805, 3-(5,7-dimethylfuro[2,3-c]pyridin-2-yl)-7-[(3S)-3,4-dimethylpiperazin-1-yl]-2H-chromen-2-one], for which the melting point was 200 to 205 °C. In addition, in data set [1] (setting [2]), the EC (1.5-fold) is under 0.1 µM. Further, in the data set on Smn protein, the EC1.5x (concentration giving 1.5-fold Smn protein increase) was under 300 nM and the “maximum fold (Fold) increase” value is recorded as “***** (fold increase >1.65)”.
Turning to `C[C@@H]1CN(c2ccc3cc(-c4ccc5c(c4)OCO5)c(=O)oc3c2)C[C@H](C)N1` [Compound 487, 3-(1,3-benzodioxol-5-yl)-7-[(3R,5S)-3,5-dimethylpiperazin-1-yl]-2H-chromen-2-one], the melting point is 123 to 125 °C. Also, in data set [1] (setting [2]), the EC (1.5-fold) lay within 3 to 30 µM. Also, the “maximum fold (Fold) increase” value in the data set with Smn protein is given as “* (maximum fold increase of ≤1.2)”.
On to `CN1CCN(c2ccc3cc(-c4nc(C(F)(F)F)cs4)c(=O)oc3c2)CC1.O=C(O)C(F)(F)F` [Compound 53, 7-(4-methylpiperazin-1-yl)-3-[4-(trifluoromethyl)-1,3-thiazol-2-yl]-2H-chromen-2-one trifluoroacetate], for which the melting point lay within 260 to 270 °C. The EC (1.5-fold) in data set [1] (setting [2]) was 3 to 30 µM. For the same compound, the “maximum fold (Fold) increase” value with Smn protein is “** (fold increase between >1.2 and ≤1.35)”.
Take `C[C@@H]1CN(c2ccc3cc(-c4cn(-c5ccccc5)cn4)c(=O)oc3c2)C[C@H](C)N1` [Cpd 452, 7-[(3R,5S)-3,5-dimethylpiperazin-1-yl]-3-(1-phenyl-1H-imidazol-4-yl)-2H-chromen-2-one]: the melting point is 260 to 264 °C. Also, the EC (1.5-fold) in data set [1] (setting [2]) was in the range of 3 to 30 µM. The “maximum fold (Fold) increase” value in the data set with Smn protein is recorded as “* (maximum fold increase of ≤1.2)”.
Turning to `CN1CCN(c2ccc3cc(-c4cn5ccncc5n4)c(=O)oc3c2)CC1` [Compound 457, 3-(imidazo[1,2-a]pyrazin-2-yl)-7-(4-methylpiperazin-1-yl)-2H-chromen-2-one], the melting point was in the range of 246 to 249 °C. For the same compound, the EC (1.5-fold) in data set [1] (setting [2]) is 0.1 to 0.3 µM. In addition, the “maximum fold (Fold) increase” value in the data set on Smn protein is “** (fold increase between >1.2 and ≤1.35)”.
The compound `Cc1ccn2cc(-c3cc4ccc(N5CCN(C)CC5)cc4oc3=O)nc2c1` [Compound 134, 3-(7-methylimidazo[1,2-a]pyridin-2-yl)-7-(4-methylpiperazin-1-yl)-2H-chromen-2-one] showed a melting point of 252 to 262 °C. Also, the EC (1.5-fold) in data set [1] (setting [2]) is 0.3 to 1 µM. Also, in the data set on Smn protein, the EC1.5x (concentration giving 1.5-fold Smn protein increase) is 1000 to 3000 nM; the “maximum fold (Fold) increase” value is “*** (fold increase between >1.35 and ≤1.5)”.
Regarding `CCN(CC)Cc1ccc2cc(-c3nc4c(Cl)cccc4s3)c(=O)oc2c1` [Compound 58, 3-(4-chloro-1,3-benzothiazol-2-yl)-7-[(diethylamino)methyl]-2H-chromen-2-one], the melting point was in the range of 147 to 151 °C. Also, the EC (1.5-fold) in data set [1] (setting [2]) fell in the range of 1 to 3 µM. In the data set with Smn protein, the EC1.5x (concentration giving 1.5-fold Smn protein increase) was 300 to 1000 nM; the “maximum fold (Fold) increase” value is “**** (fold increase between >1.5 and ≤1.65)”.
Compound `CC1(C)CN(c2ccc3cc(-c4cn5cc(F)ccc5n4)c(=O)oc3c2)CCN1` [Compound 508, 7-(3,3-dimethylpiperazin-1-yl)-3-(6-fluoroimidazo[1,2-a]pyridin-2-yl)-2H-chromen-2-one] registered a melting point of 182 to 185 °C. The EC (1.5-fold) in data set [1] (setting [2]) lay in the range of 0.3 to 1 µM. Moreover, in the data set on Smn protein, the “maximum fold (Fold) increase” value is “** (fold increase between >1.2 and ≤1.35)”.
Regarding `COc1c(F)cc(F)cc1-c1cc2ccc(N3CCNCC3)cc2oc1=O` [Compound 538, 3-(3,5-difluoro-2-methoxyphenyl)-7-(piperazin-1-yl)-2H-chromen-2-one], the melting point lay in the range of 109 to 111 °C. Further, in data set [1] (setting [2]), the EC (1.5-fold) fell in the range of 3 to 30 µM. The “maximum fold (Fold) increase” value with Smn protein is “* (maximum fold increase of ≤1.2)”.
`O=c1oc2cc(N3CCN4CCCCC4C3)ccc2cc1-c1cn2cccc(F)c2n1` (centres unmarked) [Compound 578, 3-(8-fluoroimidazo[1,2-a]pyridin-2-yl)-7-(octahydro-2H-pyrido[1,2-a]pyrazin-2-yl)-2H-chromen-2-one] returned a melting point of 230 to 233 °C. For the same compound, in data set [1] (setting [2]), the EC (1.5-fold) fell in the range of 1 to 3 µM. In the data set on Smn protein, the “maximum fold (Fold) increase” value is listed as “* (maximum fold increase of ≤1.2)”.
Consider `CN(C)Cc1ccc2cc(-c3nc4c(Cl)cccc4s3)c(=O)oc2c1` [Cpd 14, 3-(4-chloro-1,3-benzothiazol-2-yl)-7-[(dimethylamino)methyl]-2H-chromen-2-one], for which the melting point lay in the range of 179 to 182 °C. For the same compound, in data set [1] (setting [2]), the EC (1.5-fold) lay within 0.3 to 1 µM. In addition, the “maximum fold (Fold) increase” value with Smn protein was “*** (fold increase between >1.35 and ≤1.5)”.

For the origin of these results see patent publication USRE47689E1, “Compounds for treating spinal muscular atrophy” (PTC Therapeutics, Inc., priority 2011, dated 2019).
